These results are taken from US20140248374A1, “COMPOSITIONS AND MULTI-STEP METHODS OF USING THE SAME FOR THE TREATMENT OF JELLYFISH STINGS” (UNIVERSITY OF HAWAII, priority 2011, published 2014).

Assay [1] deals with hemolytic toxins. The following applies: in the presence of 10 mM D-lactulose; cited from earlier work.
The test system of assay [2] is Chironex fleckeri (the Australian box jellyfish) venom. The assay can be described thus: Survival time following lethal doses of venom in mice. The format is in vivo.
For assay [3], the system named is human washed red blood cells (RBC, 2%) subjected to Alatina moseri venom. The assay can be described thus: Venom-induced hemolysis of washed RBC, 96-well plate, plasma hemoglobin read spectrophotometrically. The format is cell-based. The following applies: 1 hour at 37° C., FIG. 1.
Description: Using a 96-well plate, human washed red blood cells (RBC, 2%) were subjected to Alatina moseri venom (6.4 U/mL/%). And treated simultaneously with a dose of zinc gluconate administered to a final concentration of from 0 to 25 mM zinc gluconate in combination with a dose of copper gluconate administered to a final concentration of from 0 to 128 μM. At the end of the incubation period, the 96 well plate was centrifuged briefly at 4° C. to pellet red blood cells from plasma. Plasma hemoglobin levels were then determined spectrophotometrically.

As for `OC[C@H]1O[C@@H](O[C@@H]2[C@@H](CO)O[C@](O)(CO)[C@H]2O)[C@H](O)[C@@H](O)[C@H]1O` [D-lactulose], the hemolysis entry in assay [1] is “dramatic absence of hemolysis”.
Turning to Zinc, the survival time entry in assay [2] was “increase survival time”.
Regarding copper gluconate, in assay [3] (copper gluconate (0 to 128 μM) with between 0 mM and 12.5 mM zinc gluconate), the “inhibition of venom-induced hemolysis” value is given as “substantially increased the baseline inhibition”. For the same compound, the “hemolysis after exposure to venom” value in assay [3] (up to 128 μM copper gluconate added to 25 mM zinc gluconate) is “practically eliminated hemolysis”.
Regarding zinc gluconate, the “inhibition of venom-induced hemolysis” value in assay [3] (zinc gluconate alone (baseline), 2% RBC, Alatina moseri venom 6.4 U/mL/%) is “baseline inhibition of venom-induced hemolysis”.
